Patent US20250326834A1, “COMBINATION THERAPY OF CLAUDIN 18.2 ANTAGONIST AND PD-1/PD-L1 AXIS INHIBITOR” (SUZHOU TRANSCENTA THERAPEUTICS CO., LTD., priority 2021, published 2025)

Experiments:
[1] = system: CT26-CLDN18.2 syngeneic tumor; experiment: CT26-CLDN18.2 syngeneic tumor model, 18B10 and Atezolizumab; assay type: in vivo, BALB/c mice
Description: CT26 is synergic mouse tumor model. CT26-CLDN18.2 was purchased from Kyinno (Cat #, KC-1195), which was stalely transfected with human CLDN18.2 expression. The tumor cells were routinely sub-cultured twice weekly by trypsin-EDTA treatment (Hyclone). The cells growing in an exponential growth phase were harvested and counted for tumor inoculation. Female SPF grade BALB/c mice were inoculated with 2×10^6 CT26-CLDN18.2 cells. Animal were selected and randomized to 4 groups (n=8) when tumors grow to 80-120 mm^3. Animals were then treated with either 10 mg/kg Isotype control, 10 mg/kg anti-CLDN18.2 antibody 18B10, 3 mg/kg anti-PD-L1 antibody Atezolizumab, or 10 mg/kg anti-CLDN18.2 antibody 18B10 and 3 mg/kg anti-PD-L1 antibody Atezolizumab twice a week for 3 weeks by i.p. injection. Tumor size was measured twice a week in two dimensions using a caliper (INSIZE) and the volume was expressed in mm^3 using the formula: V=0.5 a×b^2 where a and b are the long and short diameters of the tumor, respectively. Results were analyzed using Prism GraphPad and expressed as mean±S.E.M. Comparisons between two groups were made by T-test, and the difference is considered significant if p is *<0.05 and **<0.01.

[2] = system: MC38-CLDN18.2 syngeneic tumor; experiment: MC38-CLDN18.2 syngeneic tumor model, 18B10 and Atezolizumab; assay type: in vivo, C57BL/6 mice
Description: MC38-CLDN18.2 was purchase from Kyinno (Cat #, KC-1449), which was stable transfected with human CLDN18.2 expression. The tumor cells were routinely sub-culture twice weekly by trypsin-EDTA treatment (Hyclone). The cells growing in an exponential growth phase were harvested and counted for tumor inoculation. Female SPF grade C57BL/6 mice were inoculated with 2×10^6 MC38-CLDN18.2 cells. Animal were selected and randomized to 4 groups (n=6) when tumors grow to 70-100 mm^3. Animals were then treated with 13 mg/kg Isotype control, 10 mg/kg anti-CLDN18.2 antibody 18B10, 3 mg/kg anti-PD-L1 antibody Atezolizumab, 10 mg/kg anti-CLDN18.2 antibody 18B10 and 3 mg/kg anti-PD-L1 antibody Atezolizumab twice a week for 4 weeks by i.p. injection. Tumor size was measured twice a week in two dimensions using a caliper (INSIZE) and the volume was expressed in mm^3 using the formula: V=0.5 a×b^2 where a and b are the long and short diameters of the tumor, respectively. Results were analyzed using Prism GraphPad and expressed as mean±S.E.M. Comparisons between two groups were made by T-test, and the difference is considered significant if p is *<0.05 and **<0.01.

[3] = system: CLDN18.2-expressing gastric tumor cell lines NUGC-4, KATOIII and SNU-620; experiment: Upregulation of PD-L1 expression on tumor cells by supernatant of target cell/PBMC co-culture, flow cytometry; assay type: cell-based; conditions: supernatant of target cell + human PBMC (E/T 40:1) with 30 μg/ml 18B10 (S3), or of target cell with 5 ng/ml IFN-γ (S4), 72 h
Method: In this assay, three different CLDN18.2-expressing gastric tumor cell lines, NUGC-4 (JCRB, Cat #JCRBB0834), KATOIII (ATCC, Cat #HTB-103) and SNU-620 (Cobioer, Cat #CBP60508), were used as target cell and added to the cell culture plate. No antibody, 30 μg/ml of anti-CLDN18.2 antibody 18B10, 30 μg/ml of isotype control hIgG1 or 5 ng/ml IFN-γ were added into the corresponding wells with the target cell. After the plate was co-cultured at 37° C. for 30 mins, human PBMC as the effector cell was added with a E/T ratio of 40:1. The plate was incubated at 37° C. for 72 hours. At the end of incubation, 100 μl of cell culture supernatant of each well was transferred to another cell culture plate with the same target cell planted. After the second plate was incubated at 37° C. for 72 hours, the target cells were collected and analyzed for PD-L1 expression by flowcytometry using mouse anti-human PD-L1 antibody (BD Pharmingen, Cat #557924). S1 stood for the supernatant of the target cell alone; S2 stood for the supernatant of the target cell and human PBMC with isotype control hIgG1; S3 stood for the supernatant of the target cell and human PBMC with anti-CLDN18.2 antibody 18B10; S4 stood for the supernatant of the target cell with IFN-γ.

[4] = 18B10 10 mg/kg, Atezolizumab 3 mg/kg

Row | Substance | antitumor activity compared with isotype control [1, 4] | TGI ([1]; Day 33, 18B10 10 mg/kg, Atezolizumab 3 mg/kg, i.p. twice a week for 3 weeks) [%] | Tumor size ([1]; Day 33, 18B10 10 mg/kg, Atezolizumab 3 mg/kg, i.p. twice a week for 3 weeks, mean ± S.E.M.) [mm^3] | CR ([1]; Day 33, animals per group) | antitumor activity compared with isotype control [2, 4] | TGI ([2]; Day 51, 18B10 10 mg/kg, Atezolizumab 3 mg/kg, i.p. twice a week for 4 weeks) [%] | Tumor size ([2]; Day 51, 18B10 10 mg/kg, Atezolizumab 3 mg/kg, i.p. twice a week for 4 weeks, mean ± S.E.M.) [mm^3] | CR ([2]; Day 51, animals per group) | PD-L1 expression of target cells compared to S1 group (target cell alone) [3]
1 | Atezolizumab [reference compound] | better antitumor activity compared with treatment with isotype control | 71.16 | 1350.18 ± 366.69 | 2/8 | better antitumor activity compared with treatment with isotype control | 71.14 | 1154.61 ± 526.35 | 0/6 | 
2 | IFN-γ: IFN-γ, 5 ng/ml added to target cells as comparison (S4) [reference compound] |  |  |  |  |  |  |  |  | increased PD-L1 expression
